{
  "source": "patent US7407953B2",
  "about": "“Wound healing” (Photopharmica Limited, priority 2007, dated 2008)",
  "key": {"[1]": {"system": "chronic non healing leg ulcers or diabetic foot ulcers", "assay": "Clinical study, PDT on wound healing of chronic ulcers", "type": "in vivo, patients", "settings": "500 μM cream topical", "text": "After ethical review board approval and written informed participant consents were obtained, patients were recruited, provided they satisfied the ethically approved inclusion criteria. MHRA approval had been obtained.\nPatients were recruited who had chronic non healing leg ulcers or diabetic foot ulcers. These patients had shown little or no wound healing for a number of weeks prior to treatment.\nFor the treatment 3,7-bis(N,N-dibutylamino)phenothiazin-5-ium bromide, formulated in ethanol and Unguentum M as described in Example 2 above at 500 μM, was applied topically to the ulcer surface and surrounding ulcer margin (5 mm) giving a cream depth of up to 5 mm. The ulcer was then left, not occluded, but in minimal lighting, for 15 minutes. After this pre-incubation time, the cream was rubbed into the ulcer so underlying skin/tissue could be seen through the cream. If this was not possible excess cream was removed. The ulcer was then illuminated using a broad band CureLight lamp (obtainable from PhotoCure) at a fluence rate of 20-50 mW/cm^2 giving a total light dose of 50 J/cm^2.\nThe ulcer area was measured pre treatment and after 1 week and one month."}, "[2]": {"system": "chronic leg ulcers", "assay": "Phase IIa randomised, placebo controlled trial, PDT in chronic leg ulcers", "type": "in vivo, patients", "settings": "500 μM cream, 50 J/cm^2", "method": "16 patients with chronic leg ulcers were recruited for the study. All patients had ulcers that had been present for at least 3 months prior to treatment. After randomisation, 8 patients were treated with 3,7-bis(N,N-dibutylamino)phenothiazin-5-ium bromide PDT and 8 patients were treated with placebo. Ulcer area was measured before treatment and at 1 week, 1 month, 2 months and 3 months post treatment using a Visitrak system. Photographs were taken of the ulcers before treatment and at 24 h, 1 week, 1, 2 and 3 months post treatment.\nPlacebo cream was Unguentum Merck: water (1:2). 3,7-bis(N,N-dibutylamino)phenothiazin-5-ium bromide cream was 500 μM 3,7-bis(N,N-dibutylamino)phenothiazin-5-ium bromide in Unguentum Merck:water (1:2). For the treatment a 1 mm depth of cream was spread over the surface of the ulcer. The ulcer was then left, occluded under film, shielded from light for 15 minutes. At the end of the 15 minute incubation, excess cream was removed and the ulcer was illuminated using a CureLight 01 (obtainable from Photocure) at a light dose of 50 J/cm^2."}, "[3]": {"system": "full-thickness excisional wounds in flank skin of Wistar rats", "assay": "Closure of full thickness excisional wounds in Wistar rat, PDT", "type": "in vivo", "method": "3,7-bis(N,N-dibutylamino)phenothiazin-5-ium bromide was solubilised in ethanol to give a concentration of 10 mg/ml. This was diluted in Unguentum M: 80% water, to give creams with final concentrations of 100 μM or 500 μM of 3,7-bis(N,N-dibutylamino)phenothiazin-5-ium bromide.\nThe above creams were used on the closure of full thickness excisional wounds in Wistar rats with exposure to light. The effect of topical application of 50 mg of 3,7-bis(N,N-dibutylamino)phenothiazin-5-ium bromide (at concentrations of 100 μM and 500 μM) followed by photo-activation with 688 nm laser light was investigated and compared to that of application of the drug delivery vehicle (Unguentum M) followed by 688 nm photo-activation. The light dose used was 50 J/cm^2. Wound repair was measured in terms of the closure of standardised full-thickness excisional wounds created in the flank skin of adult Wistar rats."}, "[4]": {"system": "full thickness wound in flank skin of Wistar rat", "assay": "Wound healing in the Wistar rat, no light", "type": "in vivo", "settings": "for % Wound area remaining, no light, 2 days post treatment / % Wound area remaining, no light, 4 days post treatment / % Wound area remaining, no light, 6 days post treatment: 100 mg topical, not illuminated", "method": "On day 0, animals were anaesthetised and a single standardised full thickness wound (7.5 mm×7.5 mm) was created in the flank skin of each experimental animal. Wounds were dressed with a 1.5×1.5 cm pad of encapsulated gauze moistened with a fixed volume of sterile saline.\nWounds were allowed to heal without intervention for a period of 4 days, other than the replacement of saline moistened gauze and film dressings, as required.\nOn day 4 standard secondary dressings were removed. 100 mg of 100 μM or 500 μM 3,7-bis(N,N-dibutylamino)phenothiazin-5-ium bromide cream was applied to the wound. The wounds were not illuminated. The area of the wounds were measured prior to treatment (day 4) and on day 6, 8 and 10."}, "[5]": {"system": "full thickness wound in flank skin of diabetic (db/db) mice", "assay": "Wound healing in spontaneous diabetic (db/db) mice, PDT", "type": "in vivo, mice (c57BLKs/Bom db/db)", "text": "When wounds are created on (db/db) diabetic mice the wounds heal more slowly compared to the non diabetic mice. This delayed healing may be caused by a lack of vasculature to feed the wound. The delayed healing model is representative of a chronic wound, and wound healing effects of drugs can be more closely monitored and more easily measured.\n18 animals were included in this study. 6 control non diabetic mice (db/+), 6 control diabetic (db/db) mice and 6 (db/db) PDT treated diabetic mice.\nThe 3,7-bis(N,N-dibutylamino)phenothiazin-5-ium bromide was formulated in ethanol and Unguentum M as described in Example 2 below at a concentration of 0.266 mg/mL.\nOn day 0, the animals were anaesthetised and a single standardised full thickness wound (7.5 mm×7.5 mm) was created in the flank skin of each experimental animal. Wounds were then dressed with a 1.5×1.5 cm pad of encapsulated gauze moistened with a fixed volume of sterile saline solution. […]\nImage Pro image analysis software (version 4.1.0.0, obtained from Media Cybernetics, USA) was used to calculate wound closure from wound images in each of the experimental groups over time. For each wound at each time point—open wound area was measured and expressed in terms of % wound area relative to day 4 (treatment day)."}, "[6]": {"system": "intimal hyperplasia", "settings": "local photodynamic action; Heckenkamp et al 2000; cited from earlier work"}, "[7]": {"system": "rat skin flap reconstruction", "settings": "Kubler et al 1996; cited from earlier work"}, "[8]": {"system": "wounds", "settings": "literature conclusions (Parekh 1999, Lambrects 2005, Hamblin 2003, Belmont 1999); cited from earlier work"}, "[9]": {"settings": "individual patients 1-5, 50 J/cm^2 broad band light"}},
  "note": "Values joined by “and” are separate entries in the source; they are usually repeats but may differ in a detail not shown here. Identical values can stand only once.",
  "data": [
    {"compound": "CCCCN(CCCC)c1ccc2nc3ccc(N(CCCC)CCCC)cc3[s+]c2c1.[Br-]", "note": "[3,7-bis(N,N-dibutylamino)phenothiazin-5-ium bromide]", "values": [
      {"measurement": "area of the treated ulcers following the photodynamic treatment", "setting": "[1]; 50 J/cm^2", "result": "reduction in the area of the treated ulcers"},
      {"measurement": "Percentage reduction in ulcer area at 1 month compared to pre treatment", "setting": "[1]; [9]", "result": "13% and 8% and 10% and 50% and 34%"},
      {"measurement": "Percentage reduction in ulcer area at 1 week compared to pre treatment", "setting": "[1]; [9]", "result": "8% and 14% and 0% and 23%"},
      {"measurement": "healing as measured by the size of the wound, compared to placebo", "setting": "[2]", "result": "Better healing"},
      {"measurement": "patients showing complete wound healing at 2 months", "setting": "[2]; 2 out of 8 patients, placebo: none", "result": 25, "unit": "%"},
      {"measurement": "patients showing complete wound healing at 3 months", "setting": "[2]; 4 out of 8 patients, placebo: 1 out of 8 (12.5%)", "result": 50, "unit": "%"},
      {"measurement": "wound closure, light treatment vs compound alone", "setting": "[3]; 100 μM cream, 50 mg topical, 688 nm laser light 50 J/cm^2", "result": "closed more rapidly"},
      {"measurement": "wound closure, higher dose vs lower dose", "setting": "[3]; 500 μM cream vs 100 μM cream", "result": "closed more rapidly"},
      {"measurement": "adverse tissue responses, gross examination of wound and wound margin tissue", "setting": "[3]; any treatment regime of the study", "result": "no adverse tissue responses were noted"},
      {"measurement": "% Wound area remaining, no light, 2 days post treatment", "setting": "[4]; 100 μM cream", "result": 62, "unit": "%"},
      {"measurement": "% Wound area remaining, no light, 4 days post treatment", "setting": "[4]; 100 μM cream", "result": 33, "unit": "%"},
      {"measurement": "% Wound area remaining, no light, 6 days post treatment", "setting": "[4]; 100 μM cream", "result": 25, "unit": "%"},
      {"measurement": "% Wound area remaining, no light, 2 days post treatment", "setting": "[4]; 500 μM cream", "result": 62, "unit": "%"},
      {"measurement": "% Wound area remaining, no light, 4 days post treatment", "setting": "[4]; 500 μM cream", "result": 30, "unit": "%"},
      {"measurement": "% Wound area remaining, no light, 6 days post treatment", "setting": "[4]; 500 μM cream", "result": 19, "unit": "%"},
      {"measurement": "wound healing, 500 μM vs 100 μM", "setting": "[4]; no light", "result": "heal faster at a 500 μM concentration than at 100 μM"},
      {"measurement": "% wound area (open wound area relative to day 4, treatment day)", "setting": "[5]; diabetic db/db mice, 500 μM in Unguentum M topical + 25 J/cm^2 688 nm light, 3 days post treatment, 6 animals", "result": 46, "unit": "%"},
      {"measurement": "rate of wound healing", "setting": "[5]; in combination with light, treated diabetic mice vs control diabetic mice", "result": "substantial increase in the rate of wound healing"}
    ]},
    {"compound": "CN(C)c1ccc2nc3ccc(=[N+](C)C)cc-3sc2c1", "note": "[methylene blue]", "values": [
      {"measurement": "effect on intimal hyperplasia", "setting": "[6]", "result": "retarding effect on intimal hyperplasia"}
    ]},
    {"compound": "Photofrin", "values": [
      {"measurement": "effect on wound healing", "setting": "[7]", "result": "delayed wound healing"},
      {"measurement": "effect of PDT on wound healing", "setting": "[8]", "result": "delay wound healing"}
    ]},
    {"compound": "Poly-lysine-chlorin e6", "values": [
      {"measurement": "effect of PDT on wound healing", "setting": "[8]", "result": "did not accelerate wound healing"}
    ]}
  ]
}
